The test system of the data set is CCRIS mutagenicity, Ames/micronucleus/aberration tests. Kind of data set: CCRIS mutagenicity studies.
[1] abbreviates: Test System: AMES SALMONELLA TYPHIMURIUM, Strain/Indicator: TA98, Metabolic Activation: NONE, Method: PREINCUBATION
Where [2] appears, read: Test System: AMES SALMONELLA TYPHIMURIUM, Strain/Indicator: TA100, Metabolic Activation: NONE, Method: PREINCUBATION
Setting [3] is: Test System: AMES SALMONELLA TYPHIMURIUM, Strain/Indicator: TA97A, Metabolic Activation: NONE, Method: PREINCUBATION
The mark [4] stands for this setting: Test System: AMES SALMONELLA TYPHIMURIUM, Strain/Indicator: TA102, Metabolic Activation: NONE, Method: PREINCUBATION
The mark [5] stands for this setting: Test System: AMES SALMONELLA TYPHIMURIUM, Strain/Indicator: TA98, Metabolic Activation: NONE, Method: STANDARD PLATE.
The mark [6] stands for this setting: Test System: AMES SALMONELLA TYPHIMURIUM, Strain/Indicator: TA1535, Metabolic Activation: NONE, Method: STANDARD PLATE.

The source made the active and inactive calls. How the calls were made is not given here.

As to `OC/C(Br)=C(\Br)CO`, the mutagenic call (Test System: AMES SALMONELLA TYPHIMURIUM, Strain/Indicator: TA98, Metabolic Activation: HAMSTER, LIVER, S-9, AROCLOR 1254 (10%), Method: PREINCUBATION) was “active; positive”; the mutagenic call under setting [1] was “inactive; negative”; the mutagenic call (Test System: AMES SALMONELLA TYPHIMURIUM, Strain/Indicator: TA98, Metabolic Activation: RAT, LIVER, S-9, AROCLOR 1254, Method: PREINCUBATION) is “active; positive”; the mutagenic call (Test System: AMES SALMONELLA TYPHIMURIUM, Strain/Indicator: TA100, Metabolic Activation: HAMSTER, LIVER, S-9, AROCLOR 1254 (10%), Method: PREINCUBATION) was “active; positive”; the mutagenic call under setting [2] was “inactive; negative”; the mutagenic call (Test System: AMES SALMONELLA TYPHIMURIUM, Strain/Indicator: TA100, Metabolic Activation: RAT, LIVER, S-9, AROCLOR 1254 (10%), Method: PREINCUBATION) is “active; positive”. Further, the mutagenic call is “active; positive” (Test System: AMES SALMONELLA TYPHIMURIUM, Strain/Indicator: TA1535, Metabolic Activation: HAMSTER, LIVER, S-9, AROCLOR 1254 (10%), Method: PREINCUBATION); “inactive; negative” (Test System: AMES SALMONELLA TYPHIMURIUM, Strain/Indicator: TA1535, Metabolic Activation: NONE, Method: PREINCUBATION); “active; positive” (Test System: AMES SALMONELLA TYPHIMURIUM, Strain/Indicator: TA1535, Metabolic Activation: RAT, LIVER, S-9, AROCLOR 1254 (10%), Method: PREINCUBATION); “active; positive” (Test System: AMES SALMONELLA TYPHIMURIUM, Strain/Indicator: TA1537, Metabolic Activation: HAMSTER, LIVER, S-9, AROCLOR 1254 (10%), Method: PREINCUBATION); “inactive; negative” (Test System: AMES SALMONELLA TYPHIMURIUM, Strain/Indicator: TA1537, Metabolic Activation: NONE, Method: PREINCUBATION); “inactive; negative” (Test System: AMES SALMONELLA TYPHIMURIUM, Strain/Indicator: TA1537, Metabolic Activation: RAT, LIVER, S-9, AROCLOR 1254 (10%), Method: PREINCUBATION).

Consider `ClCOCCl`, for which the mutagenic call (Test System: AMES SALMONELLA TYPHIMURIUM, Strain/Indicator: G46, Metabolic Activation: NONE, Method: STANDARD PLATE) was “active; positive”.

On to `c1ccc(Cn2ccnc2)cc1`, for which the mutagenic call was “inactive; negative” under setting [1]; “inactive; negative” (Test System: AMES SALMONELLA TYPHIMURIUM, Strain/Indicator: TA98, Metabolic Activation: RAT, LIVER, S-9, N-BENZYLIMIDAZOLE, Method: PREINCUBATION); “inactive; negative” (Test System: AMES SALMONELLA TYPHIMURIUM, Strain/Indicator: TA98, Metabolic Activation: RAT, LIVER, S-9, Method: PREINCUBATION); “inactive; negative” under setting [2]; “active; positive” (Test System: AMES SALMONELLA TYPHIMURIUM, Strain/Indicator: TA100, Metabolic Activation: RAT, LIVER, S-9, N-BENZYLIMIDAZOLE, Method: PREINCUBATION); “active; positive” (Test System: AMES SALMONELLA TYPHIMURIUM, Strain/Indicator: TA100, Metabolic Activation: RAT, LIVER, S-9, Method: PREINCUBATION).

For the molecule `Cc1c2ccccc2cc2c3c(ccc12)C(=O)C(=O)C=C3`, the mutagenic call under setting [3] was “active; positive”; the mutagenic call under setting [1] was “inactive; negative”; the mutagenic call under setting [2] was “inactive; negative”; the mutagenic call under setting [4] was “inactive; negative”; the mutagenic call (Test System: AMES SALMONELLA TYPHIMURIUM, Strain/Indicator: TA104, Metabolic Activation: NONE, Method: PREINCUBATION) is “inactive; negative”.

Consider `[Cd]`, for which the mutagenic call under setting [5] is “inactive; negative”; the mutagenic call (Test System: AMES SALMONELLA TYPHIMURIUM, Strain/Indicator: TA98, Metabolic Activation: RAT, LIVER, S-9, PHENOBARBITAL, Method: STANDARD PLATE) was “inactive; negative”; the mutagenic call (Test System: AMES SALMONELLA TYPHIMURIUM, Strain/Indicator: TA102, Metabolic Activation: NONE, Method: STANDARD PLATE) was “active; positive”; the mutagenic call (Test System: AMES SALMONELLA TYPHIMURIUM, Strain/Indicator: TA102, Metabolic Activation: RAT, LIVER, S-9, PHENOBARBITAL, Method: STANDARD PLATE) was “inactive; negative”; the mutagenic call under setting [6] is “inactive; negative”; the mutagenic call (Test System: AMES SALMONELLA TYPHIMURIUM, Strain/Indicator: TA1535, Metabolic Activation: RAT, LIVER, S-9, PHENOBARBITAL, Method: STANDARD PLATE) was “inactive; negative”. For the same molecule, the mutagenic call by setting is: (Test System: AMES SALMONELLA TYPHIMURIUM, Strain/Indicator: TA1537, Metabolic Activation: NONE, Method: STANDARD PLATE) “inactive; negative”; (Test System: AMES SALMONELLA TYPHIMURIUM, Strain/Indicator: TA1537, Metabolic Activation: RAT, LIVER, S-9, PHENOBARBITAL, Method: STANDARD PLATE) “inactive; negative”.

Consider `CCNC(=O)N(C=O)CCN(C)C`, for which, under setting [6], the mutagenic call was “active; positive”.

With `CCCCC/C=C/C(=O)CCc1ccc(O)c(OC)c1`, the mutagenic call under setting [5] is “inactive; negative”; the mutagenic call (Test System: AMES SALMONELLA TYPHIMURIUM, Strain/Indicator: TA98, Metabolic Activation: RAT, LIVER, S-9, AROCLOR 1254, Method: STANDARD PLATE) is “inactive; negative”; the mutagenic call (Test System: AMES SALMONELLA TYPHIMURIUM, Strain/Indicator: TA100, Metabolic Activation: NONE, Method: STANDARD PLATE) was “inactive; negative”; the mutagenic call (Test System: AMES SALMONELLA TYPHIMURIUM, Strain/Indicator: TA100, Metabolic Activation: RAT, LIVER, S-9, AROCLOR 1254, Method: STANDARD PLATE) was “active; positive”; the mutagenic call under setting [6] is “inactive; negative”; the mutagenic call (Test System: AMES SALMONELLA TYPHIMURIUM, Strain/Indicator: TA1535, Metabolic Activation: RAT, LIVER, S-9, AROCLOR 1254, Method: STANDARD PLATE) was “active; positive”. Besides, the mutagenic call is, setting by setting: (Test System: AMES SALMONELLA TYPHIMURIUM, Strain/Indicator: TA1538, Metabolic Activation: NONE, Method: STANDARD PLATE) “inactive; negative”; (Test System: AMES SALMONELLA TYPHIMURIUM, Strain/Indicator: TA1538, Metabolic Activation: RAT, LIVER, S-9, AROCLOR 1254, Method: STANDARD PLATE) “inactive; negative”.

For the molecule `COc1cccc2c1C(=O)c1c(O)c3c(c(O)c1C2=O)CC(O)(C(C)=O)CC3OC1CC(N(C)C)C(O)C(C)O1` (stereo not drawn), the mutagenic call is “inactive; negative” (Test System: CHINESE HAMSTER V-79, Strain/Indicator: V-79/8-AZAGUANINE, Metabolic Activation: RAT, HEPATOCYTES) and “active; positive” (Test System: UDS RAT HEPATOCYTES, Strain/Indicator: THY INCORP, Metabolic Activation: NONE, Method: AUTOMATIC COLONY COUNTER).

Take `Cc1cc2nc3c(ccc4ccccc43)c(C)c2cc1C`: the mutagenic call by setting is: under setting [3], “active; positive”; under setting [1], “inactive; negative”; under setting [2], “inactive; negative”; under setting [4], “active; positive”.

As for `CCCCCCCCCCCCCCCc1cccc(O)c1C(=O)O`, the mutagenic call (End Point: In vivo micronucleus, Test System: Peripheral blood erythrocytes, Species: Mouse, Strain/Sex: CD-1, Route: Oral) was “inactive; negative”.

The record behind these values is PubChem BioAssay AID1259407 (Chemical Carcinogenesis Research Information System (CCRIS), 2018).
